Measured values as given in patent US12533339B2, “Small molecule antiviral drug treatment for human papillomavirus infections” (THE TRUSTEES OF INDIANA UNIVERSITY, priority 2020, dated 2026).
Read-outs that look alike come from different tables or passages of the source.

Assays:
E6 WT/E6AP [1] = biological target: T1, E6 WT/E6AP (Human papillomavirus type 16, UniProt P03126); assay: biochemical; type: binding; conditions: for Emax: at 24 h, E6 WT, read-out: BLI maximal Inhibition (max %) E6 WT/E6AP
wild-type E6 = wild-type E6 (Human papillomavirus type 16, UniProt P03126); type: binding; conditions: 100 μM for 16 hr at 4° C., FIG. 1A top
E6C51S/E6AP [2] = biological target: T2, E6C51S/E6AP (Human papillomavirus type 16, UniProt P03126, C58S); assay: BLI binding assay, E6 C51S binding to captured E6AP; set-up: species or system HPV-16; conditions: for BLI maximal Inhibition (max %) E6C51S/E6AP: at 24 h, E6 C51S
E6 WT/E6AP [3] = biological target: T1, E6 WT/E6AP; assay: biochemical; type: binding; conditions: WT 16E6
E6C51S/E6AP [4] = biological target: T2, E6C51S/E6AP; assay: E6/E6AP binding assay (amylose-bound MBP-16E6, E6AP-BAP activity), C51S 16E6; set-up: species or system HPV-16
E6 Cys51Ser mutant = E6 Cys51Ser mutant (Human papillomavirus type 16, UniProt P03126, C58S); assay: Whole protein ESI mass spectrometry, adduct with E6 Cys51Ser mutant; type: binding, HPV-16; conditions: 100 μM for 16 hr at 4° C., FIG. 1A bottom
E6C51S/E6AP [5] = biological target: T2, E6C51S/E6AP; assay: Fluorescence Polarization (FP) assay, MBP-E6 C51S with labeled peptide; type: binding, HPV-16; conditions: at 24 h
E6 WT/E6AP [6] = biological target: T1, E6 WT/E6AP; assay: biochemical; type: binding; conditions: for Emax: 24 h, read-out: FP maximal inhibition (max %) E6 WT/E6AP
RPE-1 cells = assay: Colony formation, crystal violet absorbance at 590 nm; type: cell-based; conditions: RPE-1 cells (no HPV), 14 days, normalized to DMSO, FIG. 6
Procedure: FIG. 6 depicts colony formation capabilities of SiHa, CaSki or RPE-1 cells in the presence of the indicated concentrations of EIN-166. Fifty cells were seeded and incubated with DMSO or EIN-166. After 14 days, cells were fixed and stained with crystal violet. Stained colonies were dissolved and absorbance at 590 nm was measured. Treatments were normalized to DMSO. Data expressed as S.E.M and *P<0.05 (n=3).

T1 sequence (P03126 8-158): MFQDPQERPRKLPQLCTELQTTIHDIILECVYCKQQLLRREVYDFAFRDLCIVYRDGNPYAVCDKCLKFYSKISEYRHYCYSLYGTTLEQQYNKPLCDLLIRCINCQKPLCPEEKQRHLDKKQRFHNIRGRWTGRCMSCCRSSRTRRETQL
T2 sequence (P03126 whole entry C58S, looked up): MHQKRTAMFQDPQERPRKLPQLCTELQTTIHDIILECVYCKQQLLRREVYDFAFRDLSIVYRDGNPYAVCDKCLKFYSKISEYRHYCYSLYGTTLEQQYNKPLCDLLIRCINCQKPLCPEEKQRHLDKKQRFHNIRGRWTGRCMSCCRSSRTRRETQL
Sequence of E6 Cys51Ser mutant (P03126 8-158 C58S): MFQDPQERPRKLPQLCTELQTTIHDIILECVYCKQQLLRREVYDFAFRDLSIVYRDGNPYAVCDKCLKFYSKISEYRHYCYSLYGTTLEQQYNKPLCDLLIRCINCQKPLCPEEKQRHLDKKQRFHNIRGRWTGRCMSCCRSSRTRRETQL
Sequence of wild-type E6 (P03126 8-158): as the sequence (P03126 8-158) above

## Cc1ccccc1C1c2ccsc2CCN1CC(=O)N1CCCN(C(=O)CCl)CC1 (centres unmarked) [EIN-116, 2-chloro-1-(4-(2-(4-(o-tolyl)-6,7-dihydrothieno[3,2-c]pyridin-5(4H)-yl)acetyl)-1,4-diazepan-1-yl)ethan-1-one]
E6 WT/E6AP [1]; E6 WT with increasing concentration of compound
  inhibition of E6 binding to E6AP (BLI), in words: inhibited E6 binding to E6AP in a concentration-dependent manner
E6 WT/E6AP [1]
  Emax: 100%
wild-type E6
  adduct formation with wild-type E6: formed an adduct
E6C51S/E6AP [2]; FIG. 1B, E6-Cys51Ser
  loss of ability to inhibit mutant form E6-Cys51Ser (BLI), in words: partly
E6C51S/E6AP [2]
  BLI maximal Inhibition (max %) E6C51S/E6AP: (max 100%)
E6 WT/E6AP [3]; 10 μM compound
  inhibition at 10 µM: 29 ± 8%
E6 WT/E6AP [3]; 100 μM compound
  inhibition at 100 µM: 74 ± 3%
E6C51S/E6AP [4]; 10 μM compound
  % Inhibition @ 10 μM E6C51S/E6AP: 5 ± 5%
E6C51S/E6AP [4]; 100 μM compound
  % Inhibition @ 100 μM E6C51S/E6AP: 36 ± 11%
E6 Cys51Ser mutant
  adduct formation with E6 Cys51Ser mutant: not with E6 Cys51Ser mutant

## C=CC(=O)N1CCN(c2nc(CCc3cccc(OC)c3)nc3sccc23)CC1 [EIN-152, 1-(4-(2-(3-methoxyphenethyl)thieno[2,3-d]pyrimidin-4-yl)piperazin-1-yl)prop-2-en-1-one]
E6 WT/E6AP [1]
  Emax: 100%
E6C51S/E6AP [5]
  FP maximal inhibition (max %) E6C51S/E6AP: (max 100%)
E6C51S/E6AP [2]
  BLI maximal Inhibition (max %) E6C51S/E6AP: (max 60%)
E6 WT/E6AP [6]
  Emax: 98%

## C=CC(=O)N1CCN(C(=O)CN2CCc3ccccc3C2c2ccccc2C)CC1 (centres unmarked) [EIN-166, 1-(4-(2-(1-(o-tolyl)-3,4-dihydroisoquinolin-2(1H)-yl)acetyl)piperazin-1-yl)prop-2-en-1-one]
E6 WT/E6AP [6]
  Emax: 100%
E6 WT/E6AP [6]; FP IC50 at 24 h (μM) E6 WT/E6AP
  IC50: 73.4 ± 3.7 µM
RPE-1 cells
  colony formation capability: no significant changes
